Results published in publication PMC6152622, “Synthesis and Evaluation of Phenylxanthine Derivatives as Potential Dual A2AR Antagonists/MAO-B Inhibitors for Parkinson’s Disease” (Molecules : A Journal of Synthetic Chemistry and Natural …, 2017).
Where two headings read alike, the source gives them in different places.

What was measured:
recombinant human MAO-B = molecular target: T1, recombinant human MAO-B (Homo sapiens, UniProt P27338); test: MAO-B inhibition, MAO-Glo commercial kit; assay type: biochemical; details: Ki converted from IC50 by Cheng-Prusoff; duplicate, mean ± SD; read-out: Ki hMAO-B
T1 construct: purchased Sigma-Aldrich Corporation
T1 sequence (P27338 1-520): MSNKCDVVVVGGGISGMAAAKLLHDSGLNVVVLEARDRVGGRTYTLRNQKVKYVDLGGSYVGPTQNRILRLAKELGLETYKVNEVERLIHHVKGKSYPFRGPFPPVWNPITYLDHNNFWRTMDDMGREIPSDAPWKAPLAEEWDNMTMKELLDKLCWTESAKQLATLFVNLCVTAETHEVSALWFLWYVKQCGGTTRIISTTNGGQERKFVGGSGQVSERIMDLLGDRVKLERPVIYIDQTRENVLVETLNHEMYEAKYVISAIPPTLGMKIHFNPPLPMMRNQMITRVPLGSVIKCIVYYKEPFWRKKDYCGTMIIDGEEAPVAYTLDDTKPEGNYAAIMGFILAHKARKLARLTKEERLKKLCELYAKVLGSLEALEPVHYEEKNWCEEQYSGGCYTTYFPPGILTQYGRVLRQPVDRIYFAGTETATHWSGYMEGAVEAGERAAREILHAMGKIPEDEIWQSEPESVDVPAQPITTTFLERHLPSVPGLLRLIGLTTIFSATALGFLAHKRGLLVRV
Description: Inhibitory potency on MAO-B enzyme from recombinant human MAO-B were carried out by a fluorometric method with a commercial kit (Promega, MAO-Glo Assay). The MAO enzyme incubation experiments were carried with a MAO-B substrate, methyl (S)-2-(6-(2-aminoethoxy) benzo[d]thiazol-2-yl)-4,5-dihydrothiazole-4-carboxylate, which was converted to luciferin methyl ester. Then the “Luciferin Detection Reagent” was added to change the methyl ester derivative to luciferin, stop the MAO-B reaction, and simultaneously produce light. The intensity of light is directly in proportion to MAO-B activity. The assay was carried in a 96-well black opaque microplate in duplicate. The reaction mixture was composed of 12.5 μL of MAO-B substrate (a final concentration of 4 μM), 25 μL of human MAO-B (1 μg of protein/well), and 12.5 μL of test compounds for each well. After 1 h of incubation at 37 °C, each well added 50 μL of “Luciferin Detection Reagent”, and incubated an additional 20 min. the luminescent signal of microplate was measured by a luminometer. The signal from reaction of MAO-B enzyme and substrate without inhibitors accounted as the positive control, whereas the signal from reaction of MAO-B enzyme and inhibitors in the absence of substrate accounted as the negative control. Compound concentrations of 1 μM were tested at first. IC50 values (the half maximal inhibitory concentration) were performed from concentration–response curves, plotted by the GraphPad Prism software. All experiments were performed in duplicate, and data are expressed as mean ± SD.

human A2AR = molecular target: T2, human A2AR (Homo sapiens, UniProt P29274); test: Radioligand binding assay ([3H]ZM241385 competition) on membranes of HEK-293 cells transfected with human A2AR; details: [3H]ZM241385 displacement; Ki converted from IC50 by Cheng-Prusoff; duplicate, mean ± SD; read-out: Ki hA2AR
T2 construct: expressed in transfected cells
Description: The binding affinity of test compounds was determined using radioligand binding assays. Human A2AR cDNA was stably transfected into HEK-293 cells. Membranes from the transfected cell were used in the interactive capacity of each compound toward the A2AR. Competition binding assay experiments by incubating membranes of 10 μg protein with 2 nM [3H]ZM241385 were carried out, with interval concentrations ranging from 0.1 nM to 100 μM of test compounds in 96-well filter plates at 4 °C for 90 min. After incubation experiments, free and bound radioligands were split by filtering and washing. Last, filter-bound radioactivity was counted after addition of 30 μL/well of scintillation solution. Nonspecific binding was measured in the presence of 100 μM ZM241385. The experiments were carried in duplicate. IC50 values were determined using a nonlinear regression curve fitting by the program GraphPad Prism. The affinities of compounds were calculated by Ki value which was from the IC50 values according as the Cheng−Prusoff equation [19].

[1] = system: haloperidol-induced catalepsy in rats; test: Haloperidol-induced catalepsy, bar test; assay type: in vivo; details: i.p.
Description: Catalepsy was measured using a thin metal bar test at 9.0 cm height. In this test, each rat was injected intraperitoneally by haloperidol (1.5 mg/kg). Before i.p. administration of vehicle (2% Tween 80–saline), PX-D-P6 and PX-E-P8 (5, 15, 50 mg/kg), at time 0 min, we tested all rats for successful induction of catalepsy. The length of time (descent latency) it persisted in hanging onto the metal bar was measured for a period of up to 300 s (maximum score). After this period, the rat was gently removed from the bar. The high bar test was performed 20 min after the injection of compound. Descent latencies have been presented as median and interquartile ranges. Differences between medians were analyzed by Kruskal-Wallis test, followed by Bonferroni's test.

[2] = Plasma and brain distribution at 1 h after i.p. administration; assay type: in vivo; details: Sprague-Dawley, rat, ip, rats, 1 h after i.p. 50 mg/kg; for concentration at 1 h: n = 6
From the text: (§1) Sprague-Dawley rats (200 ± 20 g) were obtained from the Laboratory Animal Center of Wenzhou Medical University (Wenzhou, China) to study the pharmacokinetics and tissue distribution studies (TDS) of PX-D-P6 and PX-E-P8 following intraperitoneal injection (i.p.) administration. The experiment procedures and protocols were approved the Animal Care and Use Committee of Wenzhou Medical College and complied with the Guide for the Care and Use of Laboratory Animals. The corresponding ethical approval code was WMU20161025.
(§2) The chosen compounds dissolved in suspension formulation (2 % Tween 80–saline) were administered to each rat at a dose of 50 mg/kg. Blood samples (0.3 mL) were collected from the caudal vein into 1.5 mL tapered plastic centrifuge tubes (pretreated with K2EDTA as an anticoagulant) at pre-dose, 0.08, 0.16, 0.25, 0.5, 1, 2, 4, 8, 12, 24 h after i.p. administration. Separately, blood and brain samples were collected at pre-dose and 1 h for TDS. Blood samples were immediately centrifuged at 3000 g for 10 min for isolation of the plasma. Brain samples were homogenized in phosphate buffer saline. 100 μL plasma or 200 μL brain sample was precipitated with addition of 400 μL acetonitrile and vortex mixed for 1 min and centrifuged at 10,000 g for 10 min. Finally, 2μL supernatant was injected into UPLC/MS system. Calibration standards samples were prepared with blank rat plasma or brain homogenates. Plasma pharmacokinetic parameters were analyzed by DAS (Drug and Statistics) software (Version 2, Wenzhou Medical University, Wenzhou, China).

[3] = Plasma pharmacokinetics after i.p. administration; assay type: in vivo, Sprague-Dawley rats; details: 50 mg/kg, rats
From the text: as §1, §2

[4] = Sprague-Dawley, rat, plasma, ip, n = 6

T2 sequence (P29274 whole entry): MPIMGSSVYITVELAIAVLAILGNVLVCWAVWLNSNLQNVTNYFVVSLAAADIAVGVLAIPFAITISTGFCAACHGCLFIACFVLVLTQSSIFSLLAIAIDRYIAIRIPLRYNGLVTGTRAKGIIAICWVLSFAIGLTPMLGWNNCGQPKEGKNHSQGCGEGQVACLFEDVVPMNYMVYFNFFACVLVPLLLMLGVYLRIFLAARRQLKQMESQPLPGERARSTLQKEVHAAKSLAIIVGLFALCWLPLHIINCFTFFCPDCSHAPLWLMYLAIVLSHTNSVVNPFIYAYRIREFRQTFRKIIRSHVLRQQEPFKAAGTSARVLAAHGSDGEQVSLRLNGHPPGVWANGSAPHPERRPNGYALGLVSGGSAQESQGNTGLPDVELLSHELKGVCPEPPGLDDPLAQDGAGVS

Row | SMILES | Ki (recombinant human MAO-B) | Ki (human A2AR) | melting point | further results
1 | CCn1c(=O)c2c(nc(/C=C/c3ccc(OC)c(OC)c3)n2C)n(CC)c1=O [Istradefylline, reference compound] | > 10 µM | – | – | –
2 | COc1ccc(C(=O)Nc2cccc(-c3nc4c([nH]3)c(=O)n(C)c(=O)n4C)c2)cc1OC [PX-D-M5, N-(3-(1,3-Dimethyl-2,6-dioxo-2,3,6,7-tetrahydro-1H-purin-8-yl)phenyl)-3,4-dimethoxybenzamide] | 2.36 ± 0.31 µM | 4.99 ± 0.75 µM | > 300 °C | –
3 | Cn1c(=O)c2c(nc(-c3cccc(NC(=O)c4cccc(Cl)c4)c3)n2C)n(C)c1=O [PX-D-M9, 3-Chloro-N-(3-(1,3,7-trimethyl-2,6-dioxo-2,3,6,7-tetrahydro-1H-purin-8-yl)phenyl)benzamide] | 0.76 ± 0.11 µM | 2.44 ± 0.21 µM | > 300 °C | –
4 | COc1ccc(C(=O)Nc2cccc(-c3nc4c(c(=O)n(C)c(=O)n4C)n3C)c2)cc1OC [PX-D-M10, 3,4-Dimethoxy-N-(3-(1,3,7-trimethyl-2,6-dioxo-2,3,6,7-tetrahydro-1H-purin-8-yl)phenyl)benzamide] | 2.54 ± 0.31 µM | 3.59 ± 0.36 µM | > 300 °C | –
5 | Cn1c(=O)c2[nH]c(-c3cccc(NC(=O)c4cccc(Cl)c4)c3)nc2n(C)c1=O [PX-D-M 4, 3-Chloro-N-(3-(1,3-dimethyl-2,6-dioxo-2,3,6,7-tetrahydro-1H-purin-8-yl)phenyl)benzamide] | 1.27 ± 0.18 µM | 3.61 ± 0.41 µM | > 300 °C | –
6 | Cn1c(=O)c2[nH]c(-c3ccc(NC(=O)c4cccc(Cl)c4)cc3)nc2n(C)c1=O [PX-D-P4, 3-Chloro-N-(4-(1,3-dimethyl-2,6-dioxo-2,3,6,7-tetrahydro-1H-purin-8-yl)phenyl)benzamide] | 0.25 ± 0.05 µM | 1.52 ± 0.16 µM | > 300 °C | –
7 | COc1ccc(C(=O)Nc2ccc(-c3nc4c([nH]3)c(=O)n(C)c(=O)n4C)cc2)cc1OC [PX-D-P5, N-(4-(1,3-Dimethyl-2,6-dioxo-2,3,6,7-tetrahydro-1H-purin-8-yl)phenyl)-3,4-dimethoxybenzamide] | 1.92 ± 0.25 µM | 4.27 ± 0.51 µM | > 300 °C | –
8 | Cn1c(=O)c2c(nc(-c3ccc(NC(=O)c4cccc(Cl)c4)cc3)n2C)n(C)c1=O [PX-D-P9, 3-Chloro-N-(4-(1,3,7-trimethyl-2,6-dioxo-2,3,6,7-tetrahydro-1H-purin-8-yl)phenyl)benzamide] | 1.51 ± 0.19 µM | 0.27 ± 0.08 µM | > 300 °C | –
9 | COc1ccc(C(=O)Nc2ccc(-c3nc4c(c(=O)n(C)c(=O)n4C)n3C)cc2)cc1OC [PX-D-P10, 3,4-Dimethoxy-N-(4-(1,3,7-trimethyl-2,6-dioxo-2,3,6,7-tetrahydro-1H-purin-8-yl)phenyl)benzamide] | 2.97 ± 0.37 µM | 1.34 ± 0.16 µM | > 300 °C | –
10 | COc1ccc(/C=C/C(=O)Nc2cccc(-c3nc4c([nH]3)c(=O)n(C)c(=O)n4C)c2)cc1OC [PX-E-M5] | – | – | > 300 °C | –
11 | COc1ccc(/C=C/C(=O)Nc2cccc(-c3nc4c(c(=O)n(C)c(=O)n4C)n3C)c2)cc1OC [PX-E-M10] | – | – | > 300 °C | –
12 | Cn1c(=O)c2[nH]c(-c3ccc(NC(=O)/C=C/c4cccc(Cl)c4)cc3)nc2n(C)c1=O [PX-E-P4, (E)-3-(3-Chlorophenyl)-N-(4-(1,3-dimethyl-2,6-dioxo-2,3,6,7-tetrahydro-1H-purin-8-yl)phenyl)acrylamide] | 1.75 ± 0.15 µM | 6.43 ± 0.98 µM | > 300 °C | –
13 | Cn1c(=O)c2c(nc(-c3ccc(NC(=O)/C=C/c4cccc(Cl)c4)cc3)n2C)n(C)c1=O [PX-E-P8, (E)-3-(3-Chlorophenyl)-N-(4-(1,3,7-trimethyl-2,6-dioxo-2,3,6,7-tetrahydro-1H-purin-8-yl)phenyl)acrylamide] | 0.63 ± 0.11 µM | 0.85 ± 0.11 µM | > 300 °C | Anti-catalepsy ability ([1]; 50 mg/kg (high dose)): significant anti-catalepsy ability; Effect on haloperidol-induced catalepsy ([1]; different doses (5, 15 and 50 mg/kg), haloperidol 1.5 mg/kg): significant reduction in catalepsy; Anti-catalepsy effect ([1]; low dose): slight effects; Kp at 1 h ([2]; brain and plasma, read-out: B/P Ratio (brain/plasma ratio)): 0.97; concentration at 1 h ([2]; brain, read-out: Brain concentration): 887 ± 113 ng/g; concentration at 1 h ([2]; plasma, read-out: Plasma concentration): 915 ± 231 ng/mL; Tmax ([3]; Sprague-Dawley, rat, plasma, ip, n = 6, read-out: Tmax): 28.8 min; AUC(0-t) [3, 4]: 15600 ± 1540 ng·h/mL; Cmax [3, 4]: 1640 ± 436 ng/mL; half-life [3, 4]: 196 ± 23.4 min; CL ([3]; n = 6): 171.3 ± 36.5 mL/min/kg; Tmax ([3]; n = 6): 27 ± 12.6 min
